Results from the PolyMetriX glass transition set.

Row | SMILES | glass transition temperature [°C]
1 | *C(=O)Nc1ccc(Oc2ccc(NC(=O)c3ccc4c(c3)C(=O)N(C3CCC(CC5CCC(N6C(=O)c7ccc(*)cc7C6=O)CC5)CC3)C4=O)cc2)cc1 (repeat unit) | 250.00
2 | *C(=O)Nc1ccc(Oc2ccc(NC(=O)c3ccc4c(c3)C(=O)N(c3ccc(Oc5ccc(C6(c7ccc(Oc8ccc(N9C(=O)c%10ccc(*)cc%10C9=O)cc8)cc7)NC(=O)c7ccccc76)cc5)cc3)C4=O)cc2)cc1 (repeat unit) | 325.00
3 | *C(=O)Nc1ccc(Oc2ccc(NC(=O)c3ccc4c(c3)C(=O)N(c3cccc(P(=O)(c5ccccc5)c5cccc(N6C(=O)c7ccc(*)cc7C6=O)c5)c3)C4=O)cc2)cc1 (repeat unit) | 235.00
4 | *C(=O)Nc1ccc(Oc2ccc(Oc3ccc(NC(=O)c4ccc5c(c4)C(=O)N(c4ccc(Oc6ccc(C7(c8ccc(Oc9ccc(N%10C(=O)c%11ccc(*)cc%11C%10=O)cc9)cc8)NC(=O)c8ccccc87)cc6)cc4)C5=O)cc3)cc2)cc1 (repeat unit) | 300.00
5 | *C(=O)Nc1ccc(Oc2ccc(S(=O)(=O)c3ccc(Oc4ccc(NC(=O)c5ccc6c(c5)C(=O)N(c5ccc(Oc7ccc(C8(c9ccc(Oc%10ccc(N%11C(=O)c%12ccc(*)cc%12C%11=O)cc%10)cc9)NC(=O)c9ccccc98)cc7)cc5)C6=O)cc4)cc3)cc2)cc1 (repeat unit) | 302.00
6 | *C(=O)c1ccc2c(c1)C(=O)N(c1ccc(Oc3ccc(C(=O)c4ccc(C(=O)c5ccc(Oc6ccc(N7C(=O)c8ccc(*)cc8C7=O)cc6)cc5)cc4)cc3)cc1)C2=O (repeat unit) | 233.00
7 | *Nc1ccc(Oc2ccc(Nc3ccc4c(c3)c3cc(*)ccc3n4CC(CC)CCCC)cc2)cc1 (repeat unit) | 220.00
8 | *Oc1ccc(C2(c3ccc(Oc4ccc(C(=O)c5ccc(C(=O)c6ccc(*)cc6)cc5)cc4)cc3)c3ccccc3-c3ccccc32)cc1 (repeat unit) | 243.00
9 | *Oc1ccc(NC(=C(C#N)C#N)c2cccc(C(Nc3ccc(Oc4ccc(NC(=O)c5ccc(C(=O)Nc6ccc(*)cc6)cc5)cc4)cc3)=C(C#N)C#N)c2)cc1 (repeat unit) | 274.00
10 | *Oc1ccc(Nc2ccc(/N=N/c3ccc(Nc4ccc(*)cc4)cc3)cc2)cc1 (repeat unit) | 169.00
11 | *Oc1ccc(Oc2ccc(C(=O)c3ccc(C(=O)c4ccc(*)cc4)c4ccccc34)cc2)cc1 (repeat unit) | 200.03
12 | *Oc1ccc(Oc2ccc(C(=O)c3ccc(C(=O)c4ccc(*)cc4)cc3)cc2)cc1-c1ccc(Cl)c(C(F)(F)F)c1 (repeat unit) | 147.00
13 | *Oc1ccc(Oc2ccc(NC(=C(C#N)C#N)c3cccc(C(Nc4ccc(*)cc4)=C(C#N)C#N)c3)cc2)cc1 (repeat unit) | 228.00
14 | *Oc1cccc(NC(=O)c2ccc(C(=O)Nc3ccc(*)cc3)cc2)c1 (repeat unit) | 280.00
15 | *c1ccc(-c2nc3cc(Oc4ccc(NC(=O)c5cc(C(=O)Nc6ccc(Oc7ccc8nc(-c9ccccc9)c(*)nc8c7)cc6)cc(N6C(=O)c7ccccc7C6=O)c5)cc4)ccc3nc2-c2ccccc2)cc1 (repeat unit) | 302.00
16 | *c1ccc(-c2nc3cc(Oc4ccc(NC(=O)c5cc(C(=O)Nc6ccc(Oc7ccc8nc(-c9ccccc9)c(-c9ccc(N%10C(=O)c%11ccc%12c%13c(ccc(c%11%13)C%10=O)C(=O)N(*)C%12=O)cc9)nc8c7)cc6)cc(N6C(=O)c7c(Cl)c(Cl)c(Cl)c(Cl)c7C6=O)c5)cc4)ccc3nc2-c2ccccc2)cc1 (repeat unit) | 345.00
17 | *c1ccc(-c2nc3cc(Oc4ccc(NC(=O)c5cc(C(=O)Nc6ccc(Oc7ccc8nc(-c9ccccc9)c(-c9ccc(N%10C(=O)c%11ccc%12c%13c(ccc(c%11%13)C%10=O)C(=O)N(*)C%12=O)cc9)nc8c7)cc6)cc(N6C(=O)c7ccccc7C6=O)c5)cc4)ccc3nc2-c2ccccc2)cc1 (repeat unit) | 345.00
18 | *c1ccc(Oc2ccc(-c3nc4cc(Oc5ccc(NC(=O)c6cc(C(=O)Nc7ccc(Oc8ccc9nc(-c%10ccc([N+](=O)[O-])cc%10)c(*)nc9c8)cc7)cc(N7C(=O)c8ccccc8C7=O)c6)cc5)ccc4nc3-c3ccc([N+](=O)[O-])cc3)cc2)cc1 (repeat unit) | 305.00
19 | *c1ccc(Oc2ccc(-c3nc4cc(Oc5ccc(NC(=O)c6ccc7c(c6)C(=O)N(c6ccc(C(c8ccc(N9C(=O)c%10ccc(C(=O)Nc%11ccc(Oc%12ccc%13nc(-c%14ccc([N+](=O)[O-])cc%14)c(*)nc%13c%12)cc%11)cc%10C9=O)cc8)(C(F)(F)F)C(F)(F)F)cc6)C7=O)cc5)ccc4nc3-c3ccc([N+](=O)[O-])cc3)cc2)cc1 (repeat unit) | 303.00
20 | *c1ccc(Oc2ccc(-c3nc4cc(Oc5ccc(NC(=O)c6ccc7c(c6)C(=O)N(c6ccc(C(c8ccc(N9C(=O)c%10ccc(C(=O)Nc%11ccc(Oc%12ccc%13nc(-c%14ccccc%14)c(*)nc%13c%12)cc%11)cc%10C9=O)cc8)(C(F)(F)F)C(F)(F)F)cc6)C7=O)cc5)ccc4nc3-c3ccccc3)cc2)cc1 (repeat unit) | 289.00
21 | *c1ccc(Oc2ccc3ccccc3c2-c2c(Oc3ccc(N4C(=O)c5ccc(NC(=O)Nc6ccc(Oc7ccc(NC(=O)Nc8ccc9c(c8)C(=O)N(*)C9=O)cc7)cc6)cc5C4=O)cc3)ccc3ccccc23)cc1 (repeat unit) | 274.00

The remaining lines, values ahead:

Row | glass transition temperature [°C] | SMILES
22 | 278.00 | *C(=O)Nc1ccc(Oc2ccc(NC(=O)c3ccc4c(c3)C(=O)N(c3ccc(Oc5cccc6c(N7C(=O)c8ccc(*)cc8C7=O)cccc56)cc3)C4=O)cc2)cc1 (repeat unit)
23 | 243.00 | *C(=O)Nc1ccc(Oc2ccc(Oc3ccc(NC(=O)c4ccc5c(c4)C(=O)N(c4ccc(S(=O)(=O)c6ccc(N7C(=O)c8ccc(*)cc8C7=O)cc6)cc4)C5=O)cc3)cc2)cc1 (repeat unit)
24 | 236.00 | *C(=O)Nc1ccc(Oc2cccc(NC(=O)c3ccc4c(c3)C(=O)N(c3ccc(Oc5ccc(N6C(=O)c7ccc(*)cc7C6=O)cc5)cc3)C4=O)c2)cc1 (repeat unit)
25 | 263.00 | *C(=O)Nc1ccc(Oc2cccc(NC(=O)c3ccc4c(c3)C(=O)N(c3ccc(Oc5ccc6ccc(Oc7ccc(N8C(=O)c9ccc(*)cc9C8=O)cc7)cc6c5)cc3)C4=O)c2)cc1 (repeat unit)
26 | 211.00 | *C(=O)Nc1ccc(Oc2cccc(NC(=O)c3ccc4c(c3)C(=O)N(c3ccc(Oc5cccc(N6C(=O)c7ccc(*)cc7C6=O)c5)cc3)C4=O)c2)cc1 (repeat unit)
27 | 312.00 | *Cc1ccc2oc(=O)c(C(=O)Nc3ccc(Oc4ccc(NC(=O)c5cc6cc(*)ccc6oc5=O)cc4)cc3)cc2c1 (repeat unit)
28 | 290.00 | *Cc1ccc2oc(=O)c(C(=O)Nc3ccc(Oc4ccc(Oc5ccc(NC(=O)c6cc7cc(*)ccc7oc6=O)cc5)cc4)cc3)cc2c1 (repeat unit)
29 | 274.00 | *Oc1ccc(NC(=O)c2ccc(Oc3ccc(C(=O)Nc4ccc(*)cc4)cc3)cc2)cc1 (repeat unit)
30 | 219.00 | *Oc1ccc(Oc2ccc(C(=O)Nc3ccc(Oc4ccc(NC(=O)c5ccc(*)cc5)cc4)cc3)cc2)cc1-c1ccccc1 (repeat unit)
31 | 231.00 | *Oc1ccc(Oc2ccc(C(=O)Nc3ccc(Oc4ccc(S(=O)(=O)c5ccc(Oc6ccc(NC(=O)c7ccc(*)cc7)cc6)cc5)cc4)cc3)cc2)cc1-c1ccccc1 (repeat unit)
32 | 236.00 | *Oc1ccc(Oc2ccc(NC(=O)c3ccc(Oc4ccc(Oc5ccc(C(=O)Nc6ccc(*)cc6)cc5)cc4)cc3)cc2)cc1 (repeat unit)
33 | 191.00 | *Oc1ccc2ccc(Oc3ccc(C(=O)Nc4ccc(Oc5ccc(Oc6ccc(NC(=O)c7ccc(*)cc7)cc6)cc5)cc4)cc3)cc2c1 (repeat unit)
34 | 227.00 | *Oc1ccc2ccc(Oc3ccc(C(=O)Nc4ccc(Oc5ccc(S(=O)(=O)c6ccc(Oc7ccc(NC(=O)c8ccc(*)cc8)cc7)cc6)cc5)cc4)cc3)cc2c1 (repeat unit)
35 | 164.00 | *Oc1ccc2ccc(Oc3ccc(C(=O)Nc4cccc(Oc5ccc(NC(=O)c6ccc(*)cc6)cc5)c4)cc3)cc2c1 (repeat unit)
36 | 224.00 | *Oc1cccc2ccc(Oc3ccc(NC(=O)c4ccc(Oc5ccc(Oc6ccc(C(=O)Nc7ccc(*)cc7)cc6)cc5)cc4)cc3)cc12 (repeat unit)
37 | 218.00 | *Oc1cccc2ccc(Oc3ccc(NC(=O)c4ccc(Oc5ccc(S(=O)(=O)c6ccc(Oc7ccc(C(=O)Nc8ccc(*)cc8)cc7)cc6)cc5)cc4)cc3)cc12 (repeat unit)
38 | 196.00 | *Oc1cccc2ccc(Oc3ccc(NC(=O)c4ccc(Oc5cccc(Oc6ccc(C(=O)Nc7ccc(*)cc7)cc6)c5)cc4)cc3)cc12 (repeat unit)
39 | 180.00 | *Oc1cccc2ccc(Oc3ccc(NC(=O)c4ccc(Oc5ccccc5Oc5ccc(C(=O)Nc6ccc(*)cc6)cc5)cc4)cc3)cc12 (repeat unit)
40 | 360.00 | *c1ccc(C(=O)Nc2ccc(Oc3ccc(NC(=O)c4ccc(-n5c(=O)c6cc7c(=O)n(*)c(=O)c7cc6c5=O)cc4)cc3)cc2)cc1 (repeat unit)
41 | 280.00 | *c1ccc(C(=O)Nc2ccc(Oc3ccc(NC(=O)c4ccc(Oc5ccc(-c6nn(*)c(=O)c7ccccc67)cc5)cc4)cc3)cc2)cc1 (repeat unit)
42 | 258.00 | *c1ccc(C(=O)Nc2ccc(Oc3ccc(S(=O)(=O)c4ccc(Oc5ccc(NC(=O)c6ccc(N7C(=O)c8ccc(-c9ccc%10c(c9)C(=O)N(*)C%10=O)cc8C7=O)cc6)cc5)cc4)cc3)cc2)cc1 (repeat unit)
43 | 303.00 | *c1ccc2c(c1)C(=O)N(c1ccc(C(=O)Nc3ccc(Oc4ccc(Oc5ccc(NC(=O)c6ccc(N7C(=O)c8ccc(C(*)(C(F)(F)F)C(F)(F)F)cc8C7=O)cc6)cc5)cc4)cc3)cc1)C2=O (repeat unit)
44 | 291.00 | *c1cccc(C(=O)Nc2ccc(Oc3ccc(NC(=O)c4cccc(N5C(=O)c6ccc(-c7cccc8c7C(=O)N(*)C8=O)cc6C5=O)c4)cc3)cc2)c1 (repeat unit)
45 | 260.00 | *c1cccc(C(=O)Nc2ccc(Oc3ccc(Oc4ccc(Oc5ccc(NC(=O)c6cccc(N7C(=O)c8ccc(-c9cccc%10c9C(=O)N(*)C%10=O)cc8C7=O)c6)cc5)cc4)cc3)cc2)c1 (repeat unit)
